CCc1nnc(NC(=O)CCCCCNC(C)=O)s1
solubility (mole fraction)
Settings | 288.15 K | 293.15 K | 298.15 K | 303.15 K | 308.15 K | 313.15 K | 318.15 K
in ethanol | 0.000578 | 0.000733 | 0.000965 | 0.00118 | 0.00162 | 0.0021 | 0.0026
in n-hexane | 1.54e-05 | 1.81e-05 | 2.15e-05 | 2.47e-05 | 3.05e-05 | 3.55e-05 | 4.13e-05
in n-octanol | 0.000685 | 0.000814 | 0.000961 | 0.00113 | 0.00142 | 0.00167 | 0.00194
